“Also recorded” adds a separate entry of the source.
Columns and labels:
[1] = molecular target: T1, human P2X7 receptor (hP2X7R) (Homo sapiens, UniProt Q99572); experiment: In vitro autoradiography on rat brain cryosections locally overexpressing hP2X7R; conditions: co-incubation with blocker 10 µM, tracer 28 nM, n = 2
T1 sequence (Q99572 1-595): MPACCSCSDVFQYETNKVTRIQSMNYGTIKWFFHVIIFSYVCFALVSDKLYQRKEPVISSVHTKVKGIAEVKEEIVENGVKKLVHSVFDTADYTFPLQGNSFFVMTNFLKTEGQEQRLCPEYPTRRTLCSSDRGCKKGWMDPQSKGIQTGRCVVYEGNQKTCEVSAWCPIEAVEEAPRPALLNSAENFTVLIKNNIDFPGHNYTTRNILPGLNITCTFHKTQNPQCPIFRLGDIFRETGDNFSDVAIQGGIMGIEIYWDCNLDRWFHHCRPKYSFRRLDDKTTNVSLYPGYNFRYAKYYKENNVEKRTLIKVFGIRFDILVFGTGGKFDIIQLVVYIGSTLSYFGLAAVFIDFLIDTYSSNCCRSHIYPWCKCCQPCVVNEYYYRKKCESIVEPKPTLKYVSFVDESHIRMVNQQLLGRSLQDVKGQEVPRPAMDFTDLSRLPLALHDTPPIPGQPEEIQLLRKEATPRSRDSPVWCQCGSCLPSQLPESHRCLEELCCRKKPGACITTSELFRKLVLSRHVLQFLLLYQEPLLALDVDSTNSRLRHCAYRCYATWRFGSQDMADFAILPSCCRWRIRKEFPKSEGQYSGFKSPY
Procedure: Snap frozen brain tissue was cut on a cryostat into 20 μm sections.
Stereotactic injection of viral vector
Female Wistar rats (n=7) were anaesthetised by intraperitoneal (i.p.)
injection of ketamine (75 mg·kg-1); Ketalar, Pfizer, Brussels, Belgium) and medetomidin (1 mg·kg-1;
Domitor, Pfizer) and positioned in a stereotactic head frame (Stoelting, Wood Dale, IL, USA). Right and
left striatum were injected with 4 µL of the hP2X7R vector (rAAV_3flag-hP2X7R) and of the control
vector (rAAV_3flag-eGFP), respectively, at a rate of 0.25 µL·min-1, using a 30-gauge needle connected
to a 10 µL Hamilton syringe. Coordinates used for striatal injection of the hP2X7R vector were:
anteroposterior 0 cm, lateral -0.28 cm and dorsoventral -0.64 cm relative to bregma. Coordinates
used for striatal injection of the eGFP vector were: anteroposterior 0 cm, lateral +0.28 cm and
dorsoventral -0.64 cm relative to bregma. After injection, the needle was kept in place for another 5
minutes before removing it slowly. To reverse the anaesthesia, the rats were injected intraperitoneally
with 0.5 mg·kg-1 atipamezol (Antisedan, Orion Pharma, Newburry, Berkshire, UK).
Rats were sacrificed for in
vitro autoradiography at 3 (n=2) and 12 (n=5) weeks after vector injection.
Snap frozen brains of female Wistar rats (rAAV_3flag-hP2X7R in right striatum; rAAV_3flag-eGFP in left
striatum; sacrificed 3 weeks (n = 2) or 12 weeks (n = 5) after vector injection) were cut on a Leica
CM3050 S cryostat (Leica Biosystems, Nussloch, Germany) at -19 °C in transversal sections of 20 µm,
thaw-mounted on SuperFrostTM Plus (Thermo Fisher Scientific, Waltham, MA, USA) object glasses,
dried overnight on silica at 4 °C and then stored at -20 °C until use.
Upon use, sections were thawed to room temperature for an hour
before washing the sections in 5 mM Tris-HCl buffer (pH 7.4) at room temperature (3x 5 min). Sections
were dried in a cold stream of air before incubation (30 min) with 5 mM Tris-HCl buffer (pH 7.4)
concentration. After incubation, sections were washed (3x 1.5 min) in ice-cold 5 mM Tris-HCl buffer
(pH 7.4) followed by a dip in ice-cold demineralised water. Sections were dried in a stream of air and
then exposed to a storage phosphor screen (BAS-IP SR 2040 E, GE Healthcare Europe GmbH,
Eindhoven, the Netherlands) and the screen was read out on a Typhoon FLA 7000 phosphor imager
(GE Healthcare Europe GmbH, Eindhoven, the Netherlands).
quantified using ImageQuantTL Analysis Toolbox (version 8.1, GE Healthcare). In case of the rat brain
sections, regions of interest (ROIs) were defined around the striatum. […] Results are expressed as mean intensity, or as
percentage of tracer binding, relative to total tracer binding in the contralateral striatum. Experiments
with rAAV_3flag-hP2X7R injected rat brains were performed as a duplicate of quadruplicates.
Statistical analysis of quantitative autoradiography data (unpaired t test, two-tailed) was performed

[2] = LogDoct,7.4 by shake-flask method (1-octanol / 0.2 M phosphate buffer pH 7.4); assay type: physicochemical; conditions: mean ± SD, read-out: LogDoct,7.4 (n = 3)
Procedure: The LogDoct,7.4 of analogues [^11C]1–3 and [^11C]SMW139 ([^11C]4) was determined using the shake-flask method (partitioning between 1-octanol and 0.2 M phosphate buffer (pH 7.4)). Determined LogDoct,7.4 values (Table 1) show the same trend as LogD values reported by Wilkinson et al.[10].
LogDoct,7.4 of [^11C]1–3 and [^11C]SMW139 was determined by the shake-flask method as described in the Supplementary Information.
Analytical HPLC chromatogram of [11C]SMW139 formulation (Platinum C18, MeCN/H2O/TFA 45:55:0.1, 1 […]
Determination of LogDoct,7.4
The distribution of radiolabelled compound between 1-octanol and 0.2 M phosphate buffer (pH = 7.4) was measured at room temperature. Briefly, 1 mL of a 20 MBq·mL-1 solution of radiolabelled compound in 0.2 M phosphate buffer (pH = 7.4) was mixed with 1 mL of 1-octanol for 1 min using a vortex mixer. After a settling period of 30 min, three samples of 100 μL were taken from both layers.
All samples were counted for radioactivity in a Wallac Universal Gammacounter 1282 (PerkinElmer, Waltham, MA, USA). The LogDoct,7.4 value was calculated according to LogDoct,7.4 = 10Log(Aoct/Abuffer), where Aoct and Abuffer represent average radioactivity counts of the three 1-octanol and the three […]
(1 picture or pasted object on this page, not shown here)

[3] = Ex vivo metabolite analysis (plasma and brain) in healthy male Wistar rats; design: species or system rat
Procedure: In vivo stability of analogues [^11C]1–3 and [^11C]SMW139 was assessed in healthy male Wistar rats at 15 and 45 minutes after injection of 30–40 MBq of formulated tracer. […] Results obtained in plasma correspond with previously reported stability results in rat liver microsomes. A higher level of intact tracer was found in brain (Table 3) for [^11C]1 and [^11C]SMW139 compared with [^11C]2 and [^11C]3. Despite optimisation of the extraction method, the percentage of total radioactivity that could be extracted from brain homogenates was not optimal for all four compounds (59 ± 6% for [^11C]1; 58 ± 7% for [^11C]2; 61 ± 4% for [^11C]3; 62 ± 3% for [^11C]SMW139). Therefore, based on its highest stability in plasma in vivo, [^11C]SMW139 was selected for further in vivo studies. As imaging studies were performed in female rats, plasma metabolites were also determined in two female rats, and no differences were found between plasma metabolism of [^11C]SMW139 in male and female rats (Table S1; Supplementary Information).
For each of the carbon-11 labelled benzamide analogues [^11C]1–3 and [^11C]SMW139, a biodistribution study and metabolite analysis in healthy male Wistar rats was performed, as described in detail in the Supplementary Information. Briefly, tracer distribution in blood, brain, and peripheral organs was measured at 5, 15, 30 and 45 min after intravenous injection of 13–23 MBq of formulated tracer. Metabolite analysis was performed at 15 and 45 min after intravenous injection of 30–40 MBq of formulated tracer in both blood plasma and brain. […]
Ex vivo metabolite analysis
Healthy male and female Wistar rats (254-440 g) were injected with 30-40 MBq (at start of experiment) of formulated tracer in the tail vein under isoflurane anaesthesia. Rats were sacrificed at 15 and 45 min (n = 3 per time point). Blood samples were obtained and the brain was excised. Blood samples were collected in heparin tubes (BD Vacutainer NH 119 I.U., 7 mL, BD Vacutainer Systems, Plymouth, UK) and centrifuged at 4,000 rpm for 5 min at 4 °C (Hettich Universal 32, Andreas Hettich GmbH & Co.KG, Tuttlingen, Germany). Plasma supernatant was separated from blood cells and loaded onto a tC18 Sep-Pak (Waters, Milford, MA, USA), followed by washing with 3 mL of water to obtain the polar fraction. The non-polar fraction was then eluted with 2 mL of MeOH and 1 mL of water and further analysed by HPLC. The brain was put in a falcon tube containing 4 mL MeCN/H2O (50:50 v/v) and homogenised with a disperser (IKA T18 B Ultra-Turrax, IKA®-Werke GmbH & Co.KG, Staufen, Germany) before centrifugation (5 min, 4,000 rpm, 20 °C, Hettich Universal 32). Supernatant was separated from brain precipitate and analysed by HPLC. Analytical HPLC was performed with Dionex (Sunnyvale, CA, USA) UltiMate 3000 HPLC equipment with Chromeleon software (version 6.8) on a Gemini C18 5-µm (10 x 250 mm) column (Phenomenex, Torrance, CA, USA) with gradient and a mixture of MeCN (A) and 0.1% DIPA in water (B) as eluent according to the following scheme: 0 min, […]
0.25 mL·min-1. All separate fractions were counted for radioactivity in a Wizard Gammacounter 1470 or 2480 (Wallac/PerkinElmer, Waltham, MA, USA).

[4] = Extended single microdose toxicity study in Wistar rats; assay type: in vivo
Procedure: A single microdose toxicity study for P2X7R antagonist SMW139 was performed according to EMEA guideline EMA/CPMP/ICH/286/1995 (December 2009) in healthy Wistar rats (male and female) at a dose of 0.12 mg·kg^−1. Rats were administered SMW139 or vehicle and parameters assessed post-dose were clinical signs and mortality, changes in body weight, food consumption, terminal haematology, coagulation and clinical chemistry parameters, gross pathology and organ weights. Further details are described in the Supplementary Information. […]
Extended single microdose toxicity study
A single microdose toxicity study according to EMEA guideline EMA/CPMP/ICH/286/1995 (December 2009) was performed in healthy Wistar rats at a 1000 times higher dose than the maximal dose […]
minimum specific activity of 18.5 GBq·µmol-1). Animals were allowed to acclimatise for 10 days, group-housed and in an enriched environment with food and water available ad libitum, and with a 12-hour light-dark cycle in a temperature controlled room. Post-dosing, animals were single-housed, but with the ability to communicate. SMW139 was formulated in 6.7% EtOH in acetate/citrate buffer (citric acid monohydrate (8 mg·mL-1), sodium citrate dehydrate (16 mg·mL-1) and sodium acetate trihydrate (7 mg ·mL-1); pH 5.2) with 2.5% Tween-80. Male and female Wistar rats (244-355 g; Charles River, Tranent, Edinburgh, United Kingdom) were injected intravenously via the tail vein under light isoflurane anaesthetics with formulated SMW139 (1 mL·kg-1, corresponding to a single dose of 0.12 mg·kg-1; female n = 10; male n = 10), or vehicle only (1 mL·kg-1; female n = 10; male n = 10) and animals were sacrificed 24 hours (SMW139; female n = 5; male n = 5; vehicle; female n = 5; male n = 5) or 14 days (SMW139; female n = 5; male n = 5; vehicle; female n = 5; male n = 5) post-dose by exsanguination

[5] = rat plasma, 15 min p.i., male Wistar rats
[6] = rat plasma, 45 min p.i., male Wistar rats

Compound | Block of [^11C]SMW139 binding in rAAV_3flag-hP2X7R striatum [1] | logD [2] | Intact tracer (%) ([3]; rat brain, 15 min p.i.) | Intact tracer (%) ([3]; rat brain, 45 min p.i.) | Intact tracer (%) [3, 5] | Intact tracer (%) [3, 6] | Food consumption ([4]; single i.v. dose 0.12 mg·kg^−1) | Haematology, coagulation and clinical chemistry parameters ([4]; single i.v. dose 0.12 mg·kg^−1) | Necropsy findings ([4]; single i.v. dose 0.12 mg·kg^−1) | Organ weights ([4]; single i.v. dose 0.12 mg·kg^−1) | Toxic / clinical effects ([4]; single i.v. dose 0.12 mg·kg^−1, male and female rats) | Body weight curves vs vehicle ([4]; single i.v. dose 0.12 mg·kg^−1, p ≥ 0.05)
COc1ccc(CC(=O)NC(NC(=NC#N)Nc2cccc3ncccc23)C(C)(C)C)cc1OC (stereo not shown) [A-740003, N-(1-{[(Cyanoimino)(5-quinolinylamino)methyl]amino}-2,2-dimethylpropyl)-2-(3,4-dimethoxyphenyl)acetamide, reference compound] | 79 ± 10% |  |  |  |  |  |  |  |  |  |  | 
[11CH3]Oc1ccc(Cl)c(C(=O)NCC23CC4CC(CC(C4)C2)C3)c1 [[^11C]1] |  | 2.88 ± 0.14 | 82 ± 1% | 76 ± 2% | 37 ± 5% | 25 ± 1% |  |  |  |  |  | 
[11CH3]Oc1ccc(Cl)c(C(=O)NCC23CC4CC(CC(F)(C4)C2)C3)c1 [[^11C]2] |  | 2.93 ± 0.02 | 67 ± 5% | 32 ± 4% | 37 ± 7% | 15 ± 2% |  |  |  |  |  | 
COc1ccc(Cl)c(C(=O)NCC23CC4(F)CC(F)(CC(F)(C4)C2)C3)c1 [SMW139] |  |  |  |  |  |  | stable in all groups | No treatment-related changes | no abnormalities suggesting a toxic effect | No significant differences in organ weights | no abnormalities, complications or toxic clinical effects were observed; also recorded: no adverse or toxic effects; also recorded: no toxic effects | did not differ between vehicle injected animals and animals injected with SMW139
[11CH3]Oc1ccc(Cl)c(C(=O)NCC23CC4CC(F)(CC(F)(C4)C2)C3)c1 [[^11C]3] |  | 2.71 ± 0.01 | 62 ± 2% | 32 ± 2% | 35 ± 1% | 16 ± 1% |  |  |  |  |  | 

From article PMC5920098, “Identification of the allosteric P2X7 receptor antagonist [^11C]SMW139 as a PET tracer of microglial activation” (Scientific Reports, 2018)
